Measured values taken from patent US6413531B1, “Potentiation of biocide activity using a diethanolamide” (Buckman Laboratories International, Inc., priority 1998, dated 2002).

Test system: Pseudomonas aeruginosa ("Ps. aeruginosa") ATCC 15442
Assay: Antibacterial test, growth/no-growth (MIC) in liquid medium
Format: cell-based
Details: within the concentration range tested, i.e., up to 2000 ppm
Description: The following materials and procedure were used to determine the potentiating effect of a diethanolamide with various biocides.
(1) Pseudomonas aeruginosa (“Ps. aeruginosa”) ATCC 15442 (a bacterium)
NaCl, 8.0 g; glucose, 1.0 g; tryptone, 1.0 g; DI water, 1.0 L.
5 ml of growth medium were suspended in test tubes, and the culture medium was autoclaved at 121° C. for 20 min. Biocide stock aqueous solutions were added in each tube to give the desired biocide-diethanolamide concentrations in parts per million. No biocide was added to the control tubes. All tubes were inoculated by adding 0.1 ml of inoculum to give a bacterial concentration of about 10^6 cells/ml (10^6 spores/ml for fungal test). After each addition, the tubes were shaken vigorously to mix the contents thoroughly. All inoculated tubes were placed at 37° C. for antibacterial test and at 28° C. for antifungal test. Bacterial growth was checked after 5-7 days and fungal growth was checked after 10-14 days.
The MIC of each biocide and diethanolamide acting alone and in combination was determined on a growth-no-growth basis. Tables 1-16 present both the lowest concentrations of each biocide and diethanolamide separately for which there was no growth, and the lowest concentration of biocide in combination with diethanolamide for which there was no growth. […]

“(RS)-1- 2-[(2,4-dichlorophenyl)-2-propyl-1,3-dioxalan-2ylmethyl]-1H-1,2,4-triazole [propiconazole]” was tested. Which antibacterial activity did it give?
The antibacterial activity was “does not have any antibacterial activity”.
